The target in this assay is T1, rat PGT (Rattus norvegicus, UniProt Q00910).
T1 construct: expressed in transfected cells
Nature of the assay: PGT inhibition: [3H]PGE2 uptake in MDCK cells stably transfected with rat PGT. The assay is classed as cell-based. The note with it: room temperature. The procedure: MDCK cells stably transfected with rat PGT ae seeded at 15-20% confluence on 96-well deepwell plates. The day on which the cells are seeded is considered day 1. PGE2 uptake experiments are conducted on day 4. All of the PGE2 uptake experiments are conducted at room temperature. On day 4, cells are washed twice with Waymouth buffer (135 mM NaCl, 13 mM H-Hepes, 13 mM Na-Hepes, 2.5 mM CaCl2, 1.2 mM MgCl2, 0.8 mM MgSO4, 5 mM KCl, and 28 mM D-glucose). Then 200 μL of Waymouth buffer containing [^3H]PGE2 (available from Perkin Elmer) is added to each well. At the designed time, the uptake of [^3H]PGE2 is stopped by aspiration of uptake buffer; followed by immediate washing twice with 500 μL of chilled Waymouth buffer. Cells are then lysed with 100 μL lysis buffer containing 0.25% SDS and 0.05 N NaOH. 1.5 mL of scintillation solution is added to each well, and intracellular [^3H]PGE2 is counted via a Beta Counter.
For preliminary testing of the compounds, 20 μL of Waymouth buffer containing the compound is added to each well; this was immediately followed by the addition of 180 μL of Waymouth buffer containing [^3H]PGE2. In each well, the total volume of uptake medium is 200 μL. Test compounds are first dissolved in organic solvent, such as EtOH, and then diluted in Waymouth buffer. The percent inhibition of [^3H]PGE2 uptake by compounds is calculated as [(uptakevehicle−uptakeinhibitor)÷(uptakevehicle)]×100.
To determine IC50 of each compound, Waymouth buffer containing various concentrations of the compound is added to each well; immediately followed by the addition of 180 μL of Waymouth buffer containing [^3H]PGE2. IC50 was calculated by fitting the following equation. y=m1-m1*(m0/(m2+m0)).

As for `CCOC(=O)C(CC)(CCC(=O)O)c1csc(Nc2ccccc2O)n1` (racemic) [Cmp. 1, 4-ethoxycarbonyl-4-[2-(2-hydroxyanilino)thiazol-4-yl]hexanoic acid], the IC50 (commonly the concentration that inhibits the measured activity by half) was less than 1 µM.
The result for `CCOC(=O)C(CC)(CCC(=O)O)c1csc(Nc2ccc(C)cc2)n1` (racemic) [Cmp. 3, 4-ethoxycarbonyl-4-[2-(4-methylanilino)thiazol-4-yl]hexanoic acid] reads less than 20 µM.
Next, `CCOC(=O)C(CC)(CCC(=O)O)c1cncc(Nc2ccc(C)cc2)n1` (racemic) [Cmp. 5, 4-ethoxycarbonyl-4-[6-(4-methylanilino)pyrazin-2-yl]hexanoic acid]: less than 10 µM.
Next, `CCOC(=O)C(CC)(CCC(=O)O)c1csc(Nc2ccc(F)cc2F)n1` (racemic) [Cmp. 6, 4-[2-(2,4-difluoroanilino)thiazol-4-yl]-4-ethoxycarbonyl-hexanoic acid]: less than 10 µM.
In turn, `CCC(CC)(CCC(=O)O)c1csc(Nc2ccccc2OC)n1` (racemic) [Cmp. 7, 4-ethyl-4-[2-(2-methoxyanilino)thiazol-4-yl]hexanoic acid] had an IC50 of less than 10 µM.
The result for `CCOC(=O)C(CC)(CCC(=O)O)c1cncc(Nc2ccc(F)cc2F)n1` (racemic) [Cmp. 11, 4-[6-(2,4-difluoroanilino)pyrazin-2-yl]-4-ethoxycarbonyl-hexanoic acid] reads less than 1 µM; that for `CCOC(=O)C(CC)(CCC(=O)O)c1csc(Nc2ccc(Cl)cc2Cl)n1` (racemic) [Cmp. 14a, 4-[2-(2,4-dichloroanilino)thiazol-4-yl]-4-ethoxycarbonyl-hexanoic acid], less than 1 µM; that for `CCOC(=O)C(CC)(CCC(=O)O)c1nc(Nc2ccc(Cl)cc2Cl)sc1Br` (racemic) [Cmp. 14b, 4-[5-bromo-2-(2,4-dichloroanilino)thiazol-4-yl]-4-ethoxycarbonyl-hexanoic acid], less than 1 µM.
In turn, `CCOC(=O)C(CC)(CCC(=O)O)c1cncc(Nc2ccccc2OC)n1` (racemic) [Cmp. 17, 4-ethoxycarbonyl-4-[6-(2-methoxyanilino)pyrazin-2-yl]hexanoic acid] showed an IC50 of less than 1 µM.
Compound `CCOC(=O)C(CC)(CCC(=O)O)c1cncc(Nc2cc(F)ccc2F)n1` (racemic) [Cmp. 20, 4-[6-(2,5-difluoroanilino)pyrazin-2-yl]-4-ethoxycarbonyl-hexanoic acid] displayed an IC50 of less than 1 µM.
Regarding `CCOC(=O)C(CC)(CCC(=O)O)c1nc(Nc2ccc(Cl)cc2Cl)sc1C` (racemic) [Cmp. 23, 4-[2-(2,4-dichloroanilino)-5-methyl-thiazol-4-yl]-4-ethoxycarbonyl-hexanoic acid], the half-maximal inhibitory concentration (IC50) was less than 1 µM.
The result for `CCOC(=O)C(CC)(CCC(=O)O)c1nc(Nc2ccccc2Cl)sc1Cl` (racemic) [Cmp. 27 (RS), 4-[5-chloro-2-(2-chloroanilino)thiazol-4-yl]-4-ethoxycarbonyl-hexanoic acid] reads less than 1 µM; that for `CCOC(=O)C(CC)(CCC(=O)O)c1nc(Nc2ccc(F)cc2F)sc1C` (racemic) [compound 34, 4-(2-((2,4-difluorophenyl)amino)-5-methylthiazol-4-yl)-4-(ethoxycarbonyl)hexanoic acid], less than 10 µM; that for `CCC(CCC(=O)O)(C(=O)OCC(C)C)c1cncc(Nc2ccc(C)cc2)n1` (racemic) [compound 35, 4-(isobutoxycarbonyl)-4-(6-(p-tolylamino)pyrazin-2-yl)hexanoic acid], less than 10 µM.
Next, `CCOC(=O)C(CCC(=O)O)(CC1CC1)c1cncc(Nc2ccc(C)cc2)n1` (racemic) [compound 36, 4-(cyclopropylmethyl)-5-ethoxy-5-oxo-4-(6-(p-tolylamino)pyrazin-2-yl)pentanoic acid]: less than 10 µM; `CCOC(=O)C(CC)(CCC(=O)O)c1cncc(Nc2ccc(O)c(F)c2)n1` (racemic) [compound 37, 4-(ethoxycarbonyl)-4-(6-((3-fluoro-4-hydroxyphenyl)amino)pyrazin-2-yl)hexanoic acid]: less than 1 µM.
The compound `CCC(CCC(=O)O)(COC)c1cncc(Nc2ccc(F)cc2F)n1` (racemic) [compound 38, 4-(6-((2,4-difluorophenyl)amino)pyrazin-2-yl)-4-(methoxymethyl)hexanoic acid] displayed an IC50 of less than 10 µM.
Compound `CCC(CCC(=O)O)(C(=O)OC1(C)CC1)c1cncc(Nc2ccc(F)cc2F)n1` (racemic) [compound 39, 4-(6-((2,4-difluorophenyl)amino)pyrazin-2-yl)-4-((1-methylcyclopropoxy)carbonyl)hexanoic acid] returned an IC50 of less than 1 µM.
The result for `CCOC(=O)C(CC)(CCC(=O)O)c1nc(Nc2ccc(Cl)cc2Cl)sc1Cl` (racemic) [compound 40, 4-(5-chloro-2-((2,4-dichlorophenyl)amino)thiazol-4-yl)-4-(ethoxycarbonyl)hexanoic acid] reads less than 1 µM; that for `CCOC(=O)C(CC)(CCC(=O)O)c1nc(Nc2ccccc2Cl)sc1Cl` (single isomer, unassigned) [27 (enantiomer 1)], less than 1 µM.
`CCC(CC)(CCC(=O)O)c1csc(Nc2ccc(C)cc2)n1` [Cmp. 2, 4-ethyl-4-[2-(4-methylanilino)thiazol-4-yl]hexanoic acid] came in with an IC50 of less than 100 µM.
Next, `CCC(CC)(CCC(=O)O)c1csc(Nc2ccccc2Cl)n1` [Cmp. 8, 4-[2-(2-chloroanilino)thiazol-4-yl]-4-ethyl-hexanoic acid]: less than 10 µM; `CCC(CC)(CCC(=O)O)c1csc(Nc2cccc(OC)c2)n1` [Cmp. 9, 4-ethyl-4-[2-(3-methoxyanilino)thiazol-4-yl]hexanoic acid]: less than 10 µM; `CCC(CC)(CCC(=O)O)c1nc(Nc2ccccc2O)sc1C` [Cmp. 10, 4-ethyl-4-[2-(2-hydroxyanilino)-5-methyl-thiazol-4-yl]hexanoic acid]: less than 1 µM.
`CCOC(=O)C(CC)(CCC(=O)O)c1ccnc(Nc2ccc(C)cc2)n1` (stereo not drawn) [Cmp. 13, 4-ethoxycarbonyl-4-[2-(4-methylanilino)pyrimidin-4-yl]hexanoic acid]: the IC50 is less than 10 µM.
`CCC(CC)(CCC(=O)O)c1cncc(Nc2ccc(F)cc2F)n1` [Cmp. 18, 4-[6-(2,4-difluoroanilino)pyrazin-2-yl]-4-ethyl-hexanoic acid] displayed an IC50 of less than 1 µM.
The result for `CCc1ncc(Nc2ccc(F)cc2F)nc1C(CC)(CC)CCC(=O)O` [Cmp. 19, 4-[6-(2,4-difluoroanilino)-3-ethyl-pyrazin-2-yl]-4-ethyl-hexanoic acid] reads less than 1 µM; that for `CCC(CC)(CCC(=O)O)c1nc(Nc2ccc(F)cc2F)sc1C` [Cmp. 21, 4-[2-(2,4-difluoroanilino)-5-methyl-thiazol-4-yl]-4-ethyl-hexanoic acid], less than 1 µM.
The result for `CCC(CC)(CCC(=O)O)c1nc(Nc2ccc(F)cc2F)sc1Br` [Cmp. 22b, 4-[5-bromo-2-(2,4-difluoroanilino)thiazol-4-yl]-4-ethyl-hexanoic acid] reads less than 1 µM; that for `CCC(CC)(CCC(=O)O)c1nc(Nc2ccc(Cl)cc2Cl)sc1C` [Cmp. 24, 4-[2-(2,4-dichloroanilino)-5-methyl-thiazol-4-yl]-4-ethyl-hexanoic acid], less than 1 µM.
Turning to `CCC(CC)(CCC(=O)O)c1cncc(Nc2ccccc2Cl)n1` [Cmp. 28, 4-[6-(2-chloroanilino)pyrazin-2-yl]-4-ethyl-hexanoic acid], the IC50 is less than 1 µM.
Next, `CCC(CC)(CCC(=O)O)c1cncc(Nc2cc(F)c(F)cc2F)n1` [Cmp. 29, 4-ethyl-4-[6-(2,4,5-trifluoroanilino)pyrazin-2-yl]hexanoic acid]: less than 1 µM; `CCC(CC)(CCC(=O)O)c1csc(-c2ccccc2)n1` [compound 30, 4-ethyl-4-(2-phenylthiazol-4-yl)hexanoic acid]: less than 10 µM; `CCC(CC)(CCC(=O)O)c1csc(Nc2ccc(C(F)(F)F)cc2)n1` [compound 31, 4-ethyl-4-(2-((4-(trifluoromethyl)phenyl)amino)thiazol-4-yl)hexanoic acid]: less than 20 µM.
Next, `CCC(CC)(CCC(=O)O)c1coc(Nc2ccc(C)cc2)n1` [compound 32, 4-ethyl-4-(2-(p-tolylamino)oxazol-4-yl)hexanoic acid]: less than 100 µM; `CCC(CC)(CCC(=O)O)c1nnc(Nc2ccc(C)cc2)o1` [compound 33, 4-ethyl-4-(5-(p-tolylamino)-1,3,4-oxadiazol-2-yl)hexanoic acid]: less than 10 µM.

The values above are taken from patent US12630515B2, “Small molecule prostagladin transport inhibitors” (ALBERT EINSTEIN COLLEGE OF MEDICINE, priority 2019, dated 2026).
